Data as given in patent publication US20230174530A1, “N-(PHENYLAMINOCARBONYL) TETRAHYDRO-ISOQUINOLINES AND RELATED COMPOUNDS AS MODULATORS OF GPR65” (PATHIOS THERAPEUTICS LIMITED, priority 2020, published 2023).

Target: T1, human recombinant GPR65 (Homo sapiens, UniProt Q8IYL9)
T1 construct: host or cells: 1321N1 human astrocytoma cells (1321N1-hrGPR65)
Assay: Human GPR65 cAMP HTRF antagonist assay
Format: cell-based
Conditions: 1321N1-hrGPR65 cells stimulated at assay pH 7.2; suppression of cAMP rise; read-out: hGPR65 IC50
Summary of the method: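 1321N1 astrocytoma cells stably expressing human GPR65, 2,000 per well in KRH with 1 mM IBMX and 200 μM EDTA, preincubated 30 min with compound at RT. Acid stimulation at pH 7.2 for 30 min, pH 7.9 as control. cAMP read by HTRF 665/620 ratio; IC50 from normalised 4-parameter fit.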

T1 sequence (Q8IYL9 whole entry): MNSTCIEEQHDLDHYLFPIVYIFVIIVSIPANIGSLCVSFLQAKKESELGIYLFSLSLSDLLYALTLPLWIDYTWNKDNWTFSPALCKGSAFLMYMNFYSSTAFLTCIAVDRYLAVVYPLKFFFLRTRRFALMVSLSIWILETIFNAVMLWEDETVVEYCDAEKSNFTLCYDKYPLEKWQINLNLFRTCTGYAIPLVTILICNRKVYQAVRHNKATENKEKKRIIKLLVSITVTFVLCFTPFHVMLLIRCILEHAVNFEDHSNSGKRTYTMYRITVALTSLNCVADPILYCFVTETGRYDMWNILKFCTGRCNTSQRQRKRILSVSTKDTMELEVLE

Row | IC50 [µM] | SMILES
1 | < 0.5 | O=C(Nc1ccc(Cl)c(Cl)c1)N1CCc2cc3nncn3cc2C1 [Compound 109, N-(3,4-Dichlorophenyl)-8,9-dihydro-[1,2,4]triazolo[4,3-b][2,7]naphthyridine-7(6H)-carboxamide]
2 | > 5 | O=C(Nc1ccc(Cl)c(Cl)c1)N1CCc2cc3nccn3cc2C1 [Compound 110, N-(3,4-Dichlorophenyl)-8,9-dihydroimidazo[1,2-b][2,7]naphthyridine-7(6H)-carboxamide]
3 | > 5 | O=C(Nc1ccc(Cl)c(Cl)c1)N1CCc2cc3ncnn3cc2C1 [Compound 111, N-(3,4-Dichlorophenyl)-8,9-dihydro-[1,2,4]triazolo[1,5-b][2,7]naphthyridine-7(6H)-carboxamide]
4 | < 0.5 | O=C(Nc1ccc(Cl)c(Cl)c1)N1CCc2cc3cncn3cc2C1 [Compound 113, N-(3,4-Dichlorophenyl)-8,9-dihydroimidazo[1,5-b][2,7]naphthyridine-7(6H)-carboxamide]
5 | < 0.5 | COC(=O)c1ccc2c(c1)CCN(C(=O)Nc1ccc(Cl)c(Cl)c1)C2 [Compound 114, Methyl 2-((3,4-dichlorophenyl)carbamoyl)-1,2,3,4-tetrahydroisoquinoline-6-carboxylate]
6 | > 5 | O=C(Nc1ccc(Cl)c(Cl)c1)N1CCc2cn3ccnc3cc2C1 [Compound 115, N-(3,4-Dichlorophenyl)-6,7-dihydroimidazo[1,2-b][2,6]naphthyridine-8(9H)-carboxamide]
7 | > 5 | O=C(Nc1ccc(Cl)c(Cl)c1)N1CCc2cn3cnnc3cc2C1 [Compound 116, N-(3,4-Dichlorophenyl)-6,7-dihydro-[1,2,4]triazolo[4,3-b][2,6]naphthyridine-8(9H)-carboxamide]
8 | < 0.5 | O=C(Nc1ccc(Cl)c(Cl)c1)N1CCc2cn3cncc3cc2C1 [Compound 117, N-(3,4-Dichlorophenyl)-6,7-dihydroimidazo[1,5-b][2,6]naphthyridine-8(9H)-carboxamide]
9 | < 0.5 | O=C(Nc1ccc(Cl)c(Cl)c1)N1CCc2c(ccnc2F)C1 [Compound 120, N-(3,4-Dichlorophenyl)-5-fluoro-3,4-dihydro-2,6-naphthyridine-2(1H)-carboxamide]
10 | > 5 | O=C(Nc1ccc(Cl)c(Cl)c1)N1CCc2cn3ncnc3cc2C1 [Compound 121, N-(3,4-Dichlorophenyl)-6,7-dihydro-[1,2,4]triazolo[1,5-b][2,6]naphthyridine-8(9H)-carboxamide]
11 | > 5 | CS(=O)(=O)c1ccc2c(c1)CCN(C(=O)Nc1ccc(Cl)c(Cl)c1)C2 [Compound 125, N-(3,4-Dichlorophenyl)-6-(methylsulfonyl)-3,4-dihydroisoquinoline-2(1H)-carboxamide]
12 | 0.5 to 5 | COC(=O)c1ccc2c(c1)CN(C(=O)Nc1ccc(Cl)c(Cl)c1)CC2 [Compound 131, Methyl 2-((3,4-dichlorophenyl)carbamoyl)-1,2,3,4-tetrahydroisoquinoline-7-carboxylate]
13 | 0.5 to 5 | Cc1ccc2c(c1)CCN(C(=O)Nc1ccc(Cl)c(Cl)c1)C2 [Compound 135, N-(3,4-Dichlorophenyl)-6-methyl-3,4-dihydroisoquinoline-2(1H)-carboxamide]
14 | 0.5 to 5 | O=C(Nc1ccc(Cl)c(Cl)c1)N1CCc2ccc(Cl)cc2C1 [Compound 138, 7-Chloro-N-(3,4-dichlorophenyl)-3,4-dihydroisoquinoline-2(1H)-carboxamide]

The remaining lines, values behind:

Row | SMILES | IC50 [µM]
15 | O=C(Nc1ccc(C(F)(F)F)c(Cl)c1)N1CCc2cc(F)c(F)cc2C1 [Compound 108, N-(3-Chloro-4-(trifluoromethyl)phenyl)-6,7-difluoro-3,4-dihydroisoquinoline-2(1H)-carboxamide] | < 0.5
16 | O=C(Nc1cc(Cl)c(Cl)cc1F)N1CCc2cc(=O)[nH]cc2C1 [Compound 112, N-(4,5-Dichloro-2-fluorophenyl)-6-oxo-3,4,6,7-tetrahydro-2,7-naphthyridine-2(1H)-carboxamide] | < 0.5
17 | O=C(Nc1ccc(Cl)c(Cl)c1F)N1CCc2cc(=O)[nH]cc2C1 [Compound 118, N-(3,4-Dichloro-2-fluorophenyl)-6-oxo-3,4,6,7-tetrahydro-2,7-naphthyridine-2(1H)-carboxamide] | 0.5 to 5
18 | Nc1nccc2c1CCN(C(=O)Nc1ccc(Cl)c(Cl)c1)C2 [Compound 119, 5-Amino-N-(3,4-dichlorophenyl)-3,4-dihydro-2,6-naphthyridine-2(1H)-carboxamide] | > 5
19 | Nc1ccc2c(n1)CCN(C(=O)Nc1ccc(Cl)c(Cl)c1)C2 [Compound 122, 2-Amino-N-(3,4-dichlorophenyl)-7,8-dihydro-1,6-naphthyridine-6(5H)-carboxamide] | > 5
20 | O=C(Nc1ccc(Cl)c(Cl)c1)N1CCc2nc(F)ccc2C1 [Compound 123, N-(3,4-Dichlorophenyl)-2-fluoro-7,8-dihydro-1,6-naphthyridine-6(5H)-carboxamide] | < 0.5
21 | CS(=O)(=O)c1ccc2c(c1)CCN(C(=O)Nc1ccc(C(F)(F)F)c(Cl)c1)C2 [Compound 124, N-(3-Chloro-4-(trifluoromethyl)phenyl)-6-(methylsulfonyl)-3,4-dihydroisoquinoline-2(1H)-carboxamide] | > 5
22 | O=C(Nc1ccc(Cl)c(Cl)c1)N1CCc2cc(-c3cccnc3F)ccc2C1 [Compound 126, N-(3,4-Dichlorophenyl)-6-(2-fluoropyridin-3-yl)-3,4-dihydroisoquinoline-2(1H)-carboxamide] | 0.5 to 5
23 | O=C(Nc1ccc(Cl)c(Cl)c1)N1CCc2cc(-c3cccs3)ccc2C1 [Compound 127, N-(3,4-Dichlorophenyl)-6-(thiophen-2-yl)-3,4-dihydroisoquinoline-2(1H)-carboxamide] | > 5
24 | O=C(Nc1ccc(Cl)c(Cl)c1)N1CCc2cc(-c3ccsc3)ccc2C1 [Compound 128, N-(3,4-Dichlorophenyl)-6-(thiophen-3-yl)-3,4-dihydroisoquinoline-2(1H)-carboxamide] | > 5
25 | COC(=O)c1cc2c(cn1)CN(C(=O)Nc1ccc(C(F)(F)F)c(Cl)c1)CC2 [Compound 129, Methyl 7-((3-chloro-4-(trifluoromethyl)phenyl)carbamoyl)-5,6,7,8-tetrahydro-2,7-naphthyridine-3-carboxylate] | 0.5 to 5
26 | O=C(Nc1cc(Cl)c(Cl)cc1C(F)(F)F)N1CCc2cc(=O)[nH]cc2C1 [Compound 130, N-(4,5-Dichloro-2-(trifluoromethyl)phenyl)-6-oxo-3,4,6,7-tetrahydro-2,7-naphthyridine-2(1H)-carboxamide] | > 5
27 | N#Cc1cccc2c1CN(C(=O)Nc1ccc(C(F)(F)F)c(Cl)c1)CC2 [Compound 132, N-(3-Chloro-4-(trifluoromethyl)phenyl)-8-cyano-3,4-dihydroisoquinoline-2(1H)-carboxamide] | 0.5 to 5
28 | COc1cccc2c1CCN(C(=O)Nc1ccc(Cl)c(C(F)(F)F)c1)C2 [Compound 133, N-(4-Chloro-3-(trifluoromethyl)phenyl)-5-methoxy-3,4-dihydroisoquinoline-2(1H)-carboxamide] | 0.5 to 5
29 | COc1cccc2c1CCN(C(=O)Nc1ccc(C(F)(F)F)c(Cl)c1)C2 [Compound 134, N-(3-Chloro-4-(trifluoromethyl)phenyl)-5-methoxy-3,4-dihydroisoquinoline-2(1H)-carboxamide] | 0.5 to 5
30 | Cc1ccc2c(c1)CCN(C(=O)Nc1ccc(C(F)(F)F)c(Cl)c1)C2 [Compound 136, N-(3-Chloro-4-(trifluoromethyl)phenyl)-6-methyl-3,4-dihydroisoquinoline-2(1H)-carboxamide] | 0.5 to 5
31 | N#Cc1cccc2c1CCN(C(=O)Nc1ccc(Cl)c(C(F)(F)F)c1)C2 [Compound 137, N-(4-Chloro-3-(trifluoromethyl)phenyl)-5-cyano-3,4-dihydroisoquinoline-2(1H)-carboxamide] | 0.5 to 5
32 | O=C(Nc1ccc(Cl)c(Cl)c1)N1CCc2cccc(Cl)c2C1 [Compound 139, 8-Chloro-N-(3,4-dichlorophenyl)-3,4-dihydroisoquinoline-2(1H)-carboxamide] | 0.5 to 5
33 | Cc1noc(-c2ccc3c(c2)CCN(C(=O)Nc2ccc(Cl)c(Cl)c2)C3)n1 [Compound 140, N-(3,4-Dichlorophenyl)-6-(3-methyl-1,2,4-oxadiazol-5-yl)-3,4-dihydroisoquinoline-2(1H)-carboxamide] | < 0.5
